Laboratory results reported in patent US20190247302A1, “MATERIALS AND METHODS FOR TREATING OPHTHALMIC INFLAMMATION” (University of Miami, priority 2016, published 2019).
“Also recorded” adds a separate entry of the source.

What was measured:
[1] = Concentration of bromodomain inhibitor achievable in the new ophthalmic formulation; assay type: physicochemical; conditions: 0.5% DMSO, 0.5% Tween-80, 0.9% NaCl, 1.8% Captisol, versus previous formulations
Source text: Next, to address whether local administration of bromodomain inhibitors could be used to regulate ocular inflammatory responses, an ophthalmic formulation BRDi compounds was developed. De novo development was required because the solution required to dissolve these non-polar compounds was not amenable to application to the ocular surface, as they require dilution in high concentrations of DMSO and Tween 80.
To address this issue, a new ophthalmic formulation was developed. The bromodomain inhibitors were successfully diluted at higher concentrations when formulated with DMSO, polysorbate (Tween-80), preservative free 0.9% NaCl, and captisol (Captisol®), which is a polyanionic beta-cyclodextrin derivative providing. […] Using this new formulation, the concentrations of both DMSO and Tween-80 were able to be reduced, from 5% to 0.5% of each (which is tolerable to the eye). The final solution containing the bromodomain inhibitors was 0.5% DMSO, 0.5% Tween-80 and 1.8% Captisol.

LPS-induced keratitis = experiment: LPS-induced keratitis, local BRDi administration; clinical haze score; assay type: in vivo
Source text: FIG. 5 is a bar graph illustrating the effect of prior formulations on corneal clarity and corneal edema following LPS-induced keratitis. Y axis=clinical haze score; X axis=time after application of LPS+formulations (IBET151, topical (solid bar); IBET151, subconjunctival (hashed bar); solvent, subconjunctival (dotted bar)). […] FIG. 6 is a bar graph illustrating the effect of a formulation of the instant disclosure (administered via subconjunctival injection) on corneal clarity and corneal edema following LPS-induced keratitis. Y axis=clinical haze score; X axis=time after application of LPS+IBET151 formulation (solid bar); solvent alone (hashed bar); saline (dotted bar)). […] FIG. 7 is a bar graph illustrating the effect of a formulation of the instant disclosure (topical administration) on corneal clarity and corneal edema following LPS-induced keratitis. Y axis=clinical haze score; X axis=time after application of LPS+JQ1 formulation (topical, hashed bar); solvent alone (subconjunctival, dotted bar)). […] Next, to address whether local administration of bromodomain inhibitors could be used to regulate ocular inflammatory responses, an ophthalmic formulation BRDi compounds was developed. De novo development was required because the solution required to dissolve these non-polar compounds was not amenable to application to the ocular surface, as they require dilution in high concentrations of DMSO and Tween 80. […] The new formulation comprising bromodomain inhibitor IBET-151 was delivered locally in the eye by subconjunctival injection (20 μg/kg/body weight) just prior and during the induction of in vivo LPS-induced keratitis. […] To confirm that a second bromodomain inhibitor could successfully be used in the ocular compartment to reduce inflammation, JQ1 dissolved in the new ophthalmologic formulation was locally administered (1 μg/μl). The formulation was applied topically, i.e. on the corneal surface 1 drop/3× per day.

[2] = system: TNFα production in RAW cells; experiment: TNFα protein in LPS-treated RAW cells, intracellular antibody staining and flow cytometry; assay type: cell-based; conditions: 1 μg/ml LPS, BRDi 67.5-500 nM
Protocol: Y axis=TNFα percentage of P1 gate; X axis=no LPS/no BRDi, 1 μg/ml LPS/no BRDi, BRDI 500 nM LPS, BRDI 250 nM LPS, BRDI 125 nM LPS, BRDI 67.5 Nm LPS. Triangles=JQ1; squares=IBET151; circles=EP313.
Studies then examined protein production and confirmed that TNFα was reduced by treating RAW cells in vitro with multiple bromodomain inhibitor compounds (FIG. 2).

[3] = system: conjunctival epithelial cells (HCEC); experiment: Cytokine mRNA in LPS-exposed human conjunctival epithelial cells (HCEC); assay type: cell-based; conditions: 3 hours LPS, 500 nM
Protocol: (§1) FIGS. 8A-8C are a bar graph illustrating the effect of BRDi on a human ocular surface primary parenchymal cell line. FIG. 8A illustrates cytokine/GAPDH mRNA levels (ratio to no treatment) (Y-axis) of IL-8, IL-1β, IL-6, TNFα, and CCL2 in HCEC administered no treatment (solid bars), three hours after exposure to LPS (gray bar), and three hours after exposure to LPS and JQ1 (500 nM, hashed bar). FIG. 8B illustrates cytokine/GAPDH mRNA levels (ratio to no treatment) (Y-axis) of IL-8, IL-1β, and IL-6 in keratocytes administered no treatment (solid bars), four hours after exposure to LPS (gray bar), four hours after exposure to LPS and JQ1 (500 nM, hashed bar), and four hours after exposure to LPS and EP313 (500 nM, checked bar). FIG. 8C illustrates cytokine/GAPDH mRNA levels (ratio to no treatment) (Y-axis) of CCL2 in keratocytes administered no treatment (solid bars), four hours after exposure to LPS (gray bar), four hours after exposure to LPS and JQ1 (500 nM, hashed bar), and four hours after exposure to LPS and EP313 (500 nM, checked bar).
The ability of BRDi compounds to regulate production of dry eye-associated cytokines and chemokines produced by human ocular parenchymal cell populations also was examined. In vitro cells from the cornea and conjunctiva compartments of donated human eyes (Florida Lions Bank) were expanded. Primary cell lines were developed comprising either corneal keratocytes or conjunctival epithelial cells (HCEC) (FIG. 8A-8C). Following 3 hr. exposure to LPS, HCEC produced significant levels of IL-8, […], TNFα, CCL2, and detectable levels of IL-6 RNA (FIG. 8A). […] Corneal keratocyte cultures were also examined for RNA production and were also regulated by BRDi compounds JQ1 and EP313 (FIGS. 8B and 8C). […] These observations extend the potential of BRDi to inhibit ocular inflammation. Additionally, differences may exist between the families of BRDi compounds such that particular BRDi may be more useful under a specific set of disease conditions.

corneal keratocytes = experiment: Cytokine mRNA in LPS-exposed human corneal keratocytes; assay type: cell-based; conditions: 4 hours LPS, 500 nM
Protocol: as §1
The ability of BRDi compounds to regulate production of dry eye-associated cytokines and chemokines produced by human ocular parenchymal cell populations also was examined. In vitro cells from the cornea and conjunctiva compartments of donated human eyes (Florida Lions Bank) were expanded. […]

Structure (SMILES)	concentration of bromodomain inhibitor that can be formulated [1]	clinical haze score (corneal clarity and corneal edema) (LPS-induced keratitis; new formulation RLVP.001, subconjunctival injection, 20 μg/kg/body weight)	clinical haze score (corneal clarity and corneal edema) (LPS-induced keratitis; new formulation RLVP.001, subconjunctival injection, 20 μg/kg/body weight, listed as IBET-151)	TNFα protein (TNFα percentage of P1 gate) [2]	CCL2 RNA level [3]	IL-1β RNA level [3]	IL-6 RNA level [3]	IL-8 RNA level [3]	TNFα RNA level [3]	clinical haze score (corneal clarity and corneal edema) (LPS-induced keratitis; new formulation RLVP.001, topical, 1 μg/μl, 1 drop/3× per day)	cytokine RNA production (corneal keratocytes)
COc1cc2c(cc1-c1c(C)noc1C)ncc1[nH]c(=O)n([C@H](C)c3ccccn3)c12 [IBET151]	significantly higher concentrations	prevents corneal opacification	ameliorates the development of corneal inflammation	TNFα protein inhibition							
Cc1sc2c(c1C)C(c1ccc(Cl)cc1)=N[C@@H](CC(=O)OC(C)(C)C)c1nnc(C)n1-2 [JQ1]	significantly higher concentrations			TNFα protein inhibition	marked decreases	marginally reduced	marked decreases	marked decreases	marked decreases	prevents corneal opacification; also recorded: successfully ameliorated the inflammatory response in the cornea	regulated
